Data from patent publication US11969497B2, “Method for producing an Entada seed extract enriched with metabolites of interest, extract produced by such a method, and cosmetic and dermocosmetic applications of such an extract” (EXSYMOL, priority 2018, dated 2024).

Legend:
[1] = system: MMP-1 metalloproteinase; experiment: MMP-1 secretion by primary human fibroblasts (NHDF) exposed to blue light, ELISA (test 6); assay type: cell-based; conditions: 5 mM; blue light 30 J/cm^2; non-irradiated 100, irradiated control 214
Protocol: Primary human fibroblasts (“NHDF”) were isolated from a mammoplasty from a patient. The NHDFs were cultured in DMEM medium supplemented with 4.5 g/l of glucose and 10% of FCS. They were maintained in an atmosphere at 37° C. and 10% CO2. On D-3, the fibroblasts were inoculated in 24-well plates at a rate of 15,000 cells/cm^2. On D-1, the NHDFs were incubated at 37° C. and 10% CO2 for 24 h with the extract of Entada seeds according to the invention. […] After irradiation, the cells were reincubated at 37° C. and 10% CO2 for an additional 24 h and the culture supernatants were harvested in order to perform an ELISA assay of the MMP-1 metalloproteinase (Abcam kit, ab100603). The results obtained were normalized with respect to the quantity of cells per condition and subjected to statistical analysis in triplicate.

[2] = DPPH antioxidant test (test 2b); conditions: absorbance 517 nm after 30 minutes
Protocol: (§1) This solution was then was diluted in water to obtain, under the test conditions, an absorbance of 0.5 at 734 nm. In each well of a 96-well microplate, were placed 100 μL of a solution of the extract according to the invention to be evaluated and 150 μL of oxidized ABTS solution. After 6 minutes, the absorbance was measured at 734 nm.
Experimentally by the DPPH test in each well of a 96 well micro plate, were placed 100 μL of a solution of the active to be evaluated and 100 μL of an ethanol solution of 1,1-diphenyl-2-picrylhydrazyle (DPPH-Aldrich D913-2) at 200 μM. After 30 minutes, the absorbance was measured at 517 nm.

[3] = ABTS antioxidant test (test 2a); conditions: absorbance 734 nm after 6 minutes
Protocol: as §1

[4] = Photo-induced isomerization of trans-urocanic acid under UV-B (test 1a/1b), HPLC assay; conditions: test 1b
Protocol: Two series of experiments were performed, the first with a fixed dose UV-B radiation of 300 mJ/cm^2 (test 1a), the second with a varying dose of UV-B radiation (test 1b) and using as a control a synthetic replica of entadamide A, namely the compound “(E)-N-(2-hydroxyethyl)-3-[…]” which is the subject of patent application EP 3103436.
Experimentally, the test was carried out in a 0.01 M citrate buffer of pH 5.5, the slightly acidic pH being more in relation to the acidity of the superficial skin layers in which the trans-urocanic acid marker is located. Thus, the solutions to be irradiated (20 mL), namely the control with or without the extract according to the invention, were placed in glass Petri dishes, uncovered, then subjected at room temperature to UV-B irradiation using a UV-B oven (LabOSI®). Aliquots (500 μL) were then sampled in HPLC vials to be immediately stored protected from light and at low temperature (+4/+8° C.), prior to analysis by HPLC assay. Chromatographic profiles were thus obtained, and the residual amount of trans-urocanic acid was determined.
Experimentally concerning test 1b, the study was carried out in an almost identical manner to test 1a above, with first checking that under the experimental conditions defined, trans-urocanic acid generated a significant amount of cis-urocanic acid which can be measured by HPLC analysis. […]

EC50 [2] [µM] | EC50 [3] [µM] | SMILES | % of MMP-1 secreted [1] [%] | contribution of non-hydrolyzed phaseoloidin in the photoprotective activity of the extract against UV-B radiation [4] [%]
 |  | CC(=O)N[C@@H](CS)C(=O)O [N-acetyl-L-cysteine (NAC), N-acetyl-L-cysteine] | 61 | 
25 | 24 | O=C1O[C@H]([C@@H](O)CO)C(O)=C1O [ascorbic acid] |  | 
540 | 8.3 | O=C(O)Cc1cc(O)ccc1O[C@@H]1O[C@H](CO)[C@@H](O)[C@H](O)[C@H]1O [phaseoloidin, 2-O-β-D-glucopyranoside derivative of homogentisic acid] |  | > 25
